“And” between values parts separate entries of the source, which are not always exact repeats. Equal entries are not always repeated. Where two headings read alike, the source gives them in different places.
Legend:
[1] = system: rats with monocrotaline induced pulmonary arterial hypertension; test: Monocrotaline rat model for treatment of pulmonary arterial hypertension, dosing Day 14 till Day 28 (Example 2); format: in vivo, Male Sprague-Dawley rats; conditions: for inhibition at 100 mg/kg / inhibition at 30 mg/kg: Rattus norvegicus, po; for inhibition at 100 mg/kg / % Inhibition of Fulton index : Hypertrophy (RV/LV + S) / inhibition at 30 mg/kg: positive control = 0.00; for Fulton index: Hypertrophy (RV/LV + S), Mean / Right Ventricle weight, Mean / Right Ventricular Pressure (RVP), Mean / Right Ventricular Systolic Pressure (RVSP), Mean / Right ventricle/Body weight, Mean: group mean; for Fulton index: Hypertrophy (RV/LV + S), Mean / Right Ventricle weight, Mean / Right Ventricular Pressure (RVP), Mean / Right Ventricular Systolic Pressure (RVSP), Mean / Right ventricle/Body weight, Mean / Fulton index: Hypertrophy (RV/LV + S) / Right Ventricle weight / Right Ventricular Pressure (RVP) / Right Ventricular Systolic Pressure (RVSP) / Right ventricle/Body weight: Day 28; for Fulton index: Hypertrophy (RV/LV + S) / Right Ventricle weight / Right Ventricular Pressure (RVP) / Right Ventricular Systolic Pressure (RVSP) / Right ventricle/Body weight: individual animals
Procedure: The studies were conducted for hemodynamic evaluation of Temozolomide in anesthetized Sprague Dawley rats treated with monocrotaline (“MCT”) to induce pulmonary arterial hypertension. Sildenafil was used as an internal control to compare the effects of temozolomide
The effects of temozolomide were evaluated in rats with monocrotaline induced pulmonary arterial hypertension using sildenafil as standard care treatment. Male Sprague-Dawley rats were orally administered vehicle, temozolomide (30 mg/kg, given once daily every day starting on Day 14 till Day 28), or sildenafil (100 mg/kg, given once daily every day starting on Day 14 till Day 28) (n=12 in each group). Rats received a single injection of monocrotaline (50 mg/kg, s.c.) on Study Day 1. On the twenty-eighth day following monocrotaline dosing, the rats were anesthetized with ketamine/xylazine for terminal monitoring of pulmonary and systemic arterial pressures along with heart rate.
Test Item: Vehicle (0.5% Methylcellulose+0.2% Tween 80 in deionized water, temozolomide (30 mg/kg given once daily starting on Day 14 till Day 28; Sildenafil (100 mg/kg, administered once daily starting on Day 14 till Day 28)
(§1) Route of Administration: Oral
Study Design: The study was planned and conducted according to design depicted below in Table 7
Pulmonary arterial hypertension was induced by injecting 50 mg/kg dose of monocrotaline (3 mL/Kg MCT in 50% DMSO in water) subcutaneously to all the randomized Male Sprague-Dawley rats of Groups VII, VIII, IX, and X (except negative control group). Negative control group (Group VI, DMSO group) received a single dose of 3 mL/kg 50% DMSO in water for injection subcutaneously. Male Sprague-Dawley rats in groups VII, VIII, IX, and X were administered 50 mg/kg of body weight of monocrotaline in DMSO subcutaneously to induce PAH on day 1. The rats of vehicle positive control group (Group VIII) received 5 ml of vehicle every morning. The rats of the temozolomide group (Group IX) were orally administered Temozolomide (30 mg/kg given once daily starting on Day 14 till Day 28) and rats of sildenafil group (Group X) were orally administered sildenafil (100 mg/kg given once daily starting on Day 14 till Day 28). On the twenty-eighth day after monocrotaline dosing, the rats were anesthetized with ketamine/xylazine for terminal monitoring of pulmonary and systemic arterial pressures along with heart rate. It is understood that from day 1 till administration of test compounds i.e till day 14, rates of all groups were suffering from PAH due to administration of MCT. Thus the study was conducted to evaluate the efficacy of Temozolomide treatment for PAH. Sildenafil was used as an internal control to compare the effects of Temozolomide.

[2] = system: rats with monocrotaline induced pulmonary arterial hypertension; test: Monocrotaline rat model for pulmonary arterial hypertension, dosing from Day 1 for 28 days (Example 1); format: in vivo, Male Sprague-Dawley rats; conditions: for Fulton index: Hypertrophy (RV/LV + S), Mean / RV/Body wt, Mean / Right Ventricular Pressure (RVP), Mean / Right Ventricular Systolic Pressure (RVSP), Mean / Right ventricle (RV), Mean: group mean; for Fulton index: Hypertrophy (RV/LV + S), Mean / RV/Body wt, Mean / Right Ventricular Pressure (RVP), Mean / Right Ventricular Systolic Pressure (RVSP), Mean / Right ventricle (RV), Mean / Fulton index: Hypertrophy (RV/LV + S) / RV/Body wt / Right Ventricular Pressure (RVP) / Right ventricle (RV) / Right Ventricular Systolic Pressure (RVSP): Day 28; for Fulton index: Hypertrophy (RV/LV + S) / RV/Body wt / Right Ventricular Pressure (RVP) / Right ventricle (RV) / Right Ventricular Systolic Pressure (RVSP): individual animals; for Right Ventricular Systolic Pressure (RVSP): MCT 50 mg/kg s.c.
Procedure: The studies were conducted for hemodynamic evaluation of temozolomide in anesthetized sprague dawley rats treated with monocrotaline (“MCT”) to induce pulmonary arterial hypertension. Sildenafil was used as an internal control to compare the effects of temozolomide.
The effects of temozolomide were evaluated in rats with monocrotaline induced pulmonary arterial hypertension using sildenafil as standard care treatment. Male Sprague-Dawley rats were orally administered vehicle, temozolomide (10 mg/kg given once daily every day for 28 days starting on Day 1), or sildenafil (100 mg/kg, administered once daily every day for 28 days starting on Day 1) (n=12 in each group). Rats received a single injection of monocrotaline (50 mg/kg, s.c.) on Study Day 1. On the twenty-eighth day following monocrotaline dosing, the rats were anesthetized with ketamine/xylazine for terminal monitoring of pulmonary and systemic arterial pressures along with heart rate.
Test Item: Vehicle (0.5% Methylcellulose+0.2% Tween 80 in deionized water, Temozolomide (10 mg/kg given once daily for 28 days; Sildenafil (100 mg/kg administered once daily)
as §1
Study Design: The study was planned and conducted according to design depicted below in Table 1
Pulmonary arterial hypertension was induced by injecting monocrotaline (3 mL/Kg MCT in 50% DMSO in water) subcutaneously at a dose of 50 mg/kg of body weight to all the randomized Male Sprague-Dawley rats of Groups II, III,IV and V (except negative control group). Negative control group (Group I, DMSO group) received a single dose of 3 mL/kg 50% DMSO in water for injection subcutaneously. The positive control group (Group III) received 5 ml of vehicle every morning. The rats of temozolomide group (Group IV) were orally administered temozolomide (10 mg/kg given once daily for 28 days starting on Day 1) and rats of sildenafil group (Group V) were orally administered sildenafil (100 mg/kg given once daily for 28 days starting on Day 1) On the twenty-eighth day after monocrotaline dosing, the rats were anesthetized with ketamine/xylazine for terminal monitoring of pulmonary and systemic arterial pressures along with heart rate.

[3] = cited from earlier work
[4] = Sildenafil 100 mg/Kg p.o. QD Day 14 till Day 28
[5] = Sildenafil 100 mg/Kg p.o. QD 28 days from Day 1
[6] = Temozolomide 30 mg/Kg p.o. QD Day 14 till Day 28
[7] = administered after a modified high-fat breakfast
[8] = Temozolomide 10 mg/Kg p.o. QD 28 days from Day 1

CCCc1nn(C)c2c(=O)[nH]c(-c3cc(S(=O)(=O)N4CCN(C)CC4)ccc3OCC)nc12 [Sildenafil]
inhibition at 100 mg/kg ([1]; Sildenafil 100 mg/Kg p.o. QD Day 14 till Day 28, read-out: % Inhibition of Right Ventricular Pressure (RVP)): 58.3% | inhibition at 100 mg/kg ([1]; Sildenafil 100 mg/Kg p.o. QD Day 14 till Day 28, read-out: % Inhibition of Right Ventricular Systolic Pressure (RVSP)): 55.1% | % Inhibition of Fulton index : Hypertrophy (RV/LV + S) [1, 4]: 30.70% | Fulton index: Hypertrophy (RV/LV + S), Mean [1, 4]: 0.384 | Right Ventricle weight, Mean [1, 4]: 0.286 gms | Right Ventricular Pressure (RVP), Mean [1, 4]: 14.302 mmHg | Right Ventricular Systolic Pressure (RVSP), Mean [1, 4]: 30.803 mmHg | Right ventricle/Body weight, Mean [1, 4]: 0.0008 | Fulton index: Hypertrophy (RV/LV + S) [1, 4]: 0.464 and 0.393 and 0.306 and 0.337 and 0.389 and 0.415 | Right Ventricle weight [1, 4]: 0.309 gms and 0.220 gms and 0.259 gms and 0.256 gms and 0.308 gms and 0.363 gms | Right Ventricular Pressure (RVP) [1, 4]: 10.916 mmHg and 11.268 mmHg and 17.424 mmHg and 11.506 mmHg and 16.211 mmHg and 18.486 mmHg | Right Ventricular Systolic Pressure (RVSP) [1, 4]: 22.951 mmHg and 27.908 mmHg and 33.917 mmHg and 23.264 mmHg and 40.201 mmHg and 36.579 mmHg | Right ventricle/Body weight [1, 4]: 0.0009 (2×) and 0.0006 and 0.0007 (2×) and 0.0012 | Fulton index: Hypertrophy (RV/LV + S), Mean [2, 5]: 0.312 | RV/Body wt, Mean [2, 5]: 0.0006 | Right Ventricular Pressure (RVP), Mean [2, 5]: 13.929 mmHg | Right Ventricular Systolic Pressure (RVSP), Mean [2, 5]: 29.648 mmHg | Right ventricle (RV), Mean [2, 5]: 0.247 g | Fulton index: Hypertrophy (RV/LV + S) [2, 5]: 0.367 and 0.297 and 0.323 and 0.312 and 0.352 and 0.309 and 0.330 and 0.167 and 0.354 | RV/Body wt [2, 5]: 0.0009 and 0.0006 (4×) and 0.0007 (3×) and 0.0003 | Right Ventricular Pressure (RVP) [2, 5]: 11.481 mmHg and 15.226 mmHg and 11.673 mmHg and 14.427 mmHg and 14.139 mmHg and 16.310 mmHg and 12.947 mmHg and 12.352 mmHg and 16.804 mmHg | Right ventricle (RV) [2, 5]: 0.440 g and 0.228 g and 0.207 g and 0.232 g and 0.308 g and 0.229 g and 0.261 g and 0.083 g and 0.236 g | Right Ventricular Systolic Pressure (RVSP) [2, 5]: 23.627 mmHg and 31.322 mmHg and 24.486 mmHg and 29.450 mmHg and 31.316 mmHg and 32.922 mmHg and 34.262 mmHg and 25.579 mmHg and 33.864 mmHg

Cn1nnc2c(C(N)=O)ncn2c1=O [Temozolomide]
inhibition at 30 mg/kg ([1]; Temozolomide 30 mg/Kg p.o. QD Day 14 till Day 28, read-out: % Inhibition of Right Ventricular Pressure (RVP)): 53.9% | inhibition at 30 mg/kg ([1]; Temozolomide 30 mg/Kg p.o. QD Day 14 till Day 28, read-out: % Inhibition of Right Ventricular Systolic Pressure (RVSP)): 44.8% | % Inhibition of Fulton index : Hypertrophy (RV/LV + S) [1, 6]: 19.83% | activity in treatment of PAH ([1]; Temozolomide 30 mg/kg vs Sildenafil 100 mg/kg): comparable among with Sildenafil activity | systolic and mean pulmonary arterial pressures compared to the vehicle group ([1]; after 28 days, 30 mg/kg/QD/day, Day 14 till Day 28): differences in systolic and mean pulmonary arterial pressures | Fulton index: Hypertrophy (RV/LV + S), Mean [1, 6]: 0.444 | Right Ventricle weight, Mean [1, 6]: 0.274 gms | Right Ventricular Pressure (RVP), Mean [1, 6]: 15.802 mmHg | Right Ventricular Systolic Pressure (RVSP), Mean [1, 6]: 37.936 mmHg | Right ventricle/Body weight, Mean [1, 6]: 0.0009 | Fulton index: Hypertrophy (RV/LV + S) [1, 6]: 0.502 and 0.480 and 0.481 (2×) and 0.382 and 0.357 and 0.485 and 0.506 and 0.341 and 0.427 | Right Ventricle weight [1, 6]: 0.311 gms and 0.286 gms and 0.210 gms and 0.237 gms and 0.273 gms and 0.343 gms and 0.232 gms and 0.245 gms and 0.283 gms and 0.318 gms | Right Ventricular Pressure (RVP) [1, 6]: 15.151 mmHg and 19.476 mmHg and 14.308 mmHg and 12.295 mmHg and 15.993 mmHg and 21.577 mmHg and 22.479 mmHg and 12.349 mmHg and 12.363 mmHg and 12.035 mmHg | Right ventricle/Body weight [1, 6]: 0.0011 (3×) and 0.0010 and 0.0008 (3×) and 0.0007 and 0.0009 (2×) | Right Ventricular Systolic Pressure (RVSP) ([1]; Temozolomide 30 mg/Kg p.o. QD Day 14 till Day 28, MCT 50 mg/kg s.c. Day 1): 39.693 mmHg and 42.429 mmHg and 31.561 mmHg and 36.888 mmHg and 37.763 mmHg and 48.504 mmHg and 45.392 mmHg and 33.928 mmHg and 29.989 mmHg and 33.218 mmHg | AUC decrease [3, 7]: 9% | Mean peak plasma concentration decrease [3, 7]: 32% | median Tmax [3, 7]: 2.25 h | median Tmax increase [3, 7]: 2 fold | absorption ([3]; oral administration): rapidly and completely absorbed | activity in controlling or reducing PAH ([2]; Temozolomide 10 mg/kg vs Sildenafil 100 mg/kg): comparable among with Sildenafil activity | systolic and mean pulmonary arterial pressures compared to the vehicle group ([2]; after 28 days, 10 mg/kg/QD/day): differences in systolic and mean pulmonary arterial pressures | Fulton index: Hypertrophy (RV/LV + S), Mean [2, 8]: 0.342 | RV/Body wt, Mean [2, 8]: 0.0007 | Right Ventricular Pressure (RVP), Mean [2, 8]: 15.548 mmHg | Right Ventricular Systolic Pressure (RVSP), Mean [2, 8]: 33.732 mmHg | Right ventricle (RV), Mean [2, 8]: 0.227 g | Fulton index: Hypertrophy (RV/LV + S) [2, 8]: 0.325 and 0.333 and 0.450 and 0.294 and 0.406 and 0.287 and 0.277 and 0.255 and 0.519 and 0.345 and 0.273 | RV/Body wt [2, 8]: 0.0006 (3×) and 0.0008 (2×) and 0.0005 (4×) and 0.0011 and 0.0007 | Right Ventricular Pressure (RVP) [2, 8]: 11.178 mmHg and 15.927 mmHg and 16.493 mmHg and 19.994 mmHg and 15.532 mmHg and 12.593 mmHg and 16.840 mmHg and 17.431 mmHg and 16.896 mmHg and 16.462 mmHg and 11.679 mmHg | Right ventricle (RV) [2, 8]: 0.244 g and 0.220 g (2×) and 0.298 g and 0.202 g and 0.268 g and 0.218 g and 0.197 g and 0.167 g and 0.311 g and 0.156 g | Right Ventricular Systolic Pressure (RVSP) [2, 8]: 29.626 mmHg and 33.857 mmHg and 35.059 mmHg and 38.531 mmHg and 30.456 mmHg and 30.333 mmHg and 36.128 mmHg and 35.368 mmHg and 40.220 mmHg and 33.582 mmHg and 27.895 mmHg
